Experimental data as given in US6498159B1, “Phthalazine derivatives and remedies for erectile dysfunction” (Eisai Co., Ltd., priority 1998, dated 2002).
Structures can show the parent of a compound that is named as a salt.

Molecular target: PDE5 (Sus scrofa, UniProt A0A287B475)
Test: Inhibitory action on the enzyme cGMP-PDE obtained from porcine platelets
Assay type: biochemical
Conditions: 1 μM cGMP substrate, 1 mM EGTA, read-out: PDE 5 IC50
Description: 1) Inhibitory Action on the Enzyme cGMP-PDE Obtained from Porcine Platelets
The inhibitory activity of a test compound on the enzyme cGMP-PDE prepared from porcine platelets was determined by adding a solution of the test compound dissolved in DMSO to a reaction solution, where 1 μM cGMP was used as the substrate in the presence of 1 mM EGTA in accordance with a method of Tompson et al. The final concentration of DMSO in the reaction solution was 1% or less. Preparation of cGMP-PDE was conducted as follows. Porcine platelets were added to buffer A (20 mM Tris/HCl, 2 mM magnesium acetate, 10 mM 2-mercaptoethanol, 0.1 mM EGTA; pH 7.4), and then sonicated. The resulting suspension was centrifuged at 100,000×g for 60 min, and the resulting supernatant was subjected to a column (DEAE-Toyopearl 650S produced by Tosoh, Tokyo, Japan). After the column was washed with buffer A, the enzyme was eluted with a gradient of from 0.075 to 0.25 M NaCl in buffer A to give a CGMP-PDE fraction. The resulting fraction was dialyzed, concentrated and stored.

Row | SMILES | IC50 [nM]
1 | COc1ccc(CNc2nnc(N(C)CCc3ccccn3)c3ccc(C#N)cc23)cc1Cl [Production Example 8, 4-(3-Chloro-4-methoxybenzyl)amino-6-cyano-1-{N-methyl-[2-(2-pyridyl)ethyl]amino}phthalazine Dihydrochloride] | 0.47
2 | COc1ccc(CNc2nnc(-c3cccnc3)c3ccc(C#N)cc23)cc1Cl [Example 1, 4-(3-Chloro-4-methoxybenzyl)amino-6-cyano-1-(3-pyridyl)phthalazine Dihydrochloride] | 0.78
3 | COc1ccc(CNc2nnc(N3[C@@H]4CC[C@H]3C[C@@H](O)C4)c3ccc(C#N)cc23)cc1Br [Example 85, (endo)-4-[(3-Bromo-4-methoxybenzyl)amino]-1-(3-hydroxy-8-azabicyclo[3.2.1]octo-8-yl)-6-phthalazine Carbonitrile] | 0.12
4 | COc1ccc(CNc2nnc(N3CCC4(CC3)CC(=O)C4)c3ccc(C#N)cc23)cc1Cl [Example 12, 4-[(3-Chloro-4-methoxybenzyl)amino]-1-(2-oxo-7-azaspiro[3.5]non-7-yl)-6-phthalazine Carbonitrile] | 0.54
5 | COc1ccc(CNc2nnc(C#CC(C)(C)N)c3ccc(C#N)cc23)cc1Cl [Example 25, 1-(3-Amino-3-methyl-1-butynyl)-4-[(3-chloro-4-methoxybenzyl)amino]-6-phthalazinecarbonitrile Hydrochloride] | 0.16
6 | COc1ccc(CNc2nnc(N3CCC(=NO)CC3)c3ccc(C#N)cc23)cc1Cl [Example 50, 4-[(3-Chloro-4-methoxybenzyl)amino]-1-(4-hydroxyiminopiperidino)-6-phthalazinecarbonitrile Hydrochloride] | 0.24
7 | COc1ccc(CNc2nnc(N3[C@@H]4CC[C@H]3C[C@@H](O)C4)c3ccc(C#N)cc23)cc1Cl [Example 52, (endo)-4-[(3-Chloro-4-methoxybenzyl)amino]-1-(3-hydroxy-8-azabicyclo[3.2.1]oct-8-yl)-6-phthalazinecarbonitrile Hydrochloride] | 0.2
8 | COc1ccc(CNc2nnc(N3CCC4(CC3)COC(=O)C4)c3ccc(C#N)cc23)cc1Cl [Example 11, 4-[(3-Chloro-4-methoxybenzyl)amino]-1-(3-oxo-2-oxa-8-azaspiro[4.5]dece-8-yl)-6-phthalazine Carbonitrile] | 0.68
9 | COc1ccc(CNc2nnc(N3CC[C@H](CO)C3)c3ccc(C#N)cc23)cc1Br [Example 79, 4-[(3-Bromo-4-methoxybenzyl)amino]-1-[(3S)-3-(hydroxymethyl)tetrahydro-1H-1-pyrrolyl]-6-phthalazinecarbonitrile Hydrochloride] | 0.27
10 | COc1ccc(CCNc2nnc(N3CCC(CO)CC3)c3ccc(C#N)cc23)cc1Cl [Production Example 6, 4-(3-Chloro-4-methoxyphenethyl)amino-6-cyano-1-(4-hydroxymethylpiperidino)phthalazine] | 0.5
11 | COc1ccc(CNc2nnc(N3CCC[C@H]3CO)c3ccc(C#N)cc23)cc1Cl [Production Example 3, 4-(3-Chloro-4-methoxybenzyl)amino-6-cyano-1-[(2S)-2-hydroxymethylpyrrolidino]phthalazine Hydrochloride] | 0.72
12 | COc1ccc(CNc2nnc(N3CCC(C#N)CC3)c3ccc(C#N)cc23)cc1Cl [Example 3, 4-(3-Chloro-4-methoxybenzyl)amino-6-cyano-1-(4-cyanopiperidino)phthalazine Hydrochloride] | 1.1
13 | COc1ccc(CNc2nnc(N3CCC(F)(CO)CC3)c3ccc(C#N)cc23)cc1Cl [Example 43, 4-[(3-Chloro-4-methoxybenzyl)amino]-1-[4-fluoro-4-(hydroxymethyl)piperidino]-6-phthalazinecarbonitrile Hydrochloride] | 0.23
14 | CO/N=C/c1ccc2c(N3CCC(O)CC3)nnc(NCc3ccc(OC)c(Cl)c3)c2c1 [Example 110, 4-[(3-Chloro-4-methoxybenzyl)amino]-1-(4-hydroxypiperidino)-6-phthalazinecarbaldehyde O6-Methyloxime Hydrochloride] | 0.66
15 | COc1ccc(CNc2nnc(N3CCC(O)C(C)C3)c3ccc(C#N)cc23)cc1Cl (centres unmarked) [Production Example 11, 4-[(3-Chloro-4-methoxybenzyl)amino]-1-(4-hydroxy-3-methylpiperidino)-6-phthalazinecarbonitrile Hydrochloride] | 0.24
16 | COc1ccc(CNc2nnc(N3CCC(O)CC3)c3ccc(C#N)cc23)cc1I [Example 76, 1-(4-Hydroxypiperidino)-4-[(3-iodo-4-methoxybenzyl)amino]-6-phthalazinecarbonitrile Hydrochloride] | 0.13
17 | COc1ccc(CNc2nnc(N3CCC(O)CC3)c3ccc(-n4cccn4)cc23)cc1Cl [Example 105, 1-[4-[(3-Chloro-4-methoxybenzyl)amino]-6-(1H-1-pyrazolyl)-1-phthalazinyl]-4-piperidinol Hydrochloride] | 0.1
18 | COc1ccc(CNc2nnc(N3CCC(N)CC3)c3ccc(C#N)cc23)cc1Cl [Example 5, 1-(4-Aminopiperidino)-4-(3-chloro-4-methoxybenzyl)amino-6-cyanophthalazine Dihydrochloride] | 0.051
19 | COc1ccc(CNc2nnc(N3CCCC(CO)C3)c3ccc(C#N)cc23)cc1Cl (centres unmarked) [Production Example 4, 4-(3-Chloro-4-methoxybenzyl)amino-6-cyano-1-(3-hydroxymethylpiperidino)phthalazine Hydrochloride] | 0.19
20 | COc1ccc(CNc2nnc(N3CCC(O)(CO)CC3)c3ccc(C#N)cc23)cc1Cl [Example 6, 4-(3-Chloro-4-methoxybenzyl)amino-6-cyano-1-[4-hydroxy-4-(hydroxymethyl)piperidino]phthalazine Hydrochloride] | 0.98
21 | COc1ccc(CCNc2nnc(N3CCCC(CO)C3)c3ccc(C#N)cc23)cc1Cl (centres unmarked) [Production Example 5, 4-(3-Chloro-4-methoxyphenethyl)amino-6-cyano-1-(3-hydroxymethylpiperidino)phthalazine Hydrochloride] | 0.23
22 | COc1ccc(CNc2nnc(-c3ccccn3)c3ccc(C#N)cc23)cc1Cl [Example 2, 4-(3-Chloro-4-methoxybenzyl)amino-6-cyano-1-(2-pyridyl)phthalazine Dihydrochloride] | 0.3
23 | COc1ccc(CCNc2nnc(N3CCC(C#N)CC3)c3ccc(C#N)cc23)cc1Cl [Example 4, 4-(3-Chloro-4-methoxyphenethyl)amino-6-cyano-1-(4-cyanopiperidino)phthalazine Hydrochloride] | 0.51
24 | COc1ccc(CNc2nnc(N(C)Cc3ccccn3)c3ccc(C#N)cc23)cc1Cl [Production Example 7, 4-(3-Chloro-4-methoxybenzyl)amino-6-cyano-1-[methyl(2-pyridylmethyl)amino]phthalazine Dihydrochloride] | 0.03
25 | COc1ccc(CNc2nnc(N3CCC(CO)CC3)c3ccc(C#N)cc23)cc1Br [Example 84, 4-[(3-Bromo-4-methoxybenzyl)amino]-1-[4-(hydroxymethyl)piperidino]-6-phthalazinecarbonitrile Hydrochloride] | 0.93
26 | COc1ccc(CNc2nnc(N3CCC[C@@H](O)C3)c3ccc(C#N)cc23)cc1Cl [Production Example 1, 4-(3-Chloro-4-methoxybenzyl)amino-6-cyano-1-[(3R)-3-hydroxypiperidino]phthalazine Hydrochloride] | 0.09
